Consider one compound from patent publication US20120107323A1, “KINASE PROTEIN BINDING INHIBITORS” (University of Florida, priority 2009, published 2012).

For data set [1], the system named is C8161 melanoma cells. The experiment in a line: Apoptosis by Hoechst staining. The format is cell-based, human. Conditions: 5 μM, 72 h. On the procedure:
Detachment assay: Cells were plated with and without compound for 24, 48, and 72 h, and detached and attached cells were counted in a hemocytometer. The percent of detachment was calculated by dividing the number of detached cells by the total number of cells and experiments performed in triplicate. Apoptosis assays: After treatment, attached and detached cells were collected, counted and prepared for terminal uridine deoxynucleotidyl transferase (TUNEL) assay by utilizing an APO-BRDU kit (BD Pharmingen, San Diego, Calif.) and cells analyzed with a FACSCalibur cytometer (Becton Dickinson, San Jose, Calif.). In addition, apoptotic cells were analyzed with Hoechst 33342 staining (1 μg/ml). The percent of apoptotic cells was calculated as the ratio of apoptotic cells to total number of cells.
In addition, apoptotic cells were also analyzed by Hoechst staining. To the prepared cells as described above, Hoechst 33342 (1 μg/ml) was added, incubated in the dark room temperature for 10 minutes, and the specimens were mounted on glass coverslips. The slides were viewed under the Zeiss microscope for apoptotic nuclei. The percent of apoptotic cells was calculated as the ratio of apoptotic cells to total number of cells. Over 300 cells per sample were analyzed.

Data set [2] concerns KYSE180 esophageal cancer cells. The experiment in a line: Cell viability (MTT), KYSE180. The format is cell-based. Conditions: Homo sapiens, KYSE-180; KYSE180, 72 hours; read-out: IC50 of INT2-31, cell viability. On the procedure:
(§1) Cell viability (MTT) and CFSE Proliferation assay: Cells were plated in 96-well plates and let adhere overnight. After cell treatment, cell viability was measured by 3-(4,5-dimethylthiazol-2-yl)-2,5-diphenyl tetrazolium bromide (MTT) assay (CellTiter 96® Aqueous, Promega, Madison, Wis.).
(§2) Cell viability and detachment assays: After cells were treated with siRNA transfection, cell viability was measured by 3-(4,5-dimethylthiazol2-yl)-2,5-diphenyl tetrazolium bromide (MTT) assay (CellTiter 96® AQueous, Promega, Madison, Wis.). Briefly, 20 μl of the tetrazolium compound was added to each well. The cells were then incubated at 37° C. for 1 h. The plate was read at 490 nm with a plate reader to determine the viability. In detachment assays, detached and attached cells were harvested separately and counted in a hemocytometer. The percentage of detachment was calculated by dividing the number of detached cells by the total number of cells. Apoptosis assays: After treatment, attached and detached cells were collected, counted and prepared for terminal uridine deoxynucleotidyl transferase (TUNEL) assay by utilizing an APO-BRDU kit (BD Pharmingen, San Diego, Calif.) according to the manufacturer's instructions. Stained cells were analyzed with a fluorescence-activated cell sorting-Calibur flow cytometer (BD Biosciences). […] Apoptotic cells were also analyzed by Hoechst staining. […]

Data set [3] relates to TE3 esophageal cancer cells. The experiment in a line: Cell viability (MTT), TE3. The format is cell-based. As to conditions: TE3, 72 hours; read-out: IC50 of INT2-31, cell viability. On the procedure:
as §1, §2

The subject of data set [4] is C8161 melanoma cells. The experiment in a line: Cell counts, C8161. The data set is classed as cell-based, human.
Data set [5] relates to A375 melanoma cells. The experiment in a line: CFSE cell proliferation assay, A375. The format is cell-based, human. On the procedure:
For staining with CFSE (Molecular Probes, Eugene, Oreg.)., 1×10^7/ml cells were suspended in PBS and incubated at 37° C. for 5 min with the 10 μM of CFSE. Stained cells were cultured with medium alone or with inhibitor for 24, 48, and 72 hours, fixed and analyzed by a FACS Calibur cytometer (Becton Dickinson, San Jose, Calif.).

Data set [6] addresses IGF-1R (Homo sapiens, UniProt P08069). The experiment in a line: Kinase profiler screening, IGF-1R. The format is biochemical. Conditions: 1 μM compound, 10 μM ATP. On the procedure:
Kinase Profiler Screening: Kinase specificity screening was performed with Invitrogen's SelectScreen® Kinase Profiling Services http://www.invitrogen.com/site/us/en/home/Products-and-Services/Services/Discoverv-Research/SelectScreen-Profiling-Service/SelectScreen-Kinase-Profiling-Service.html. The screening was performed with 1 μM compound, INT2-31, 10 μM ATP, and kinase substrates against ten recombinant kinases according to Z′-LYTET™ Kinase Assay. For PI3 kinase activity, 100 μM ATP, and kinase substrate were utilized with the Invitrogen Adapta® Universal Kinase Assay protocol. Tumor Growth in Nude Mice in vivo: Six week old athymic, female nude mice were purchased from Harlan Laboratory. The mice were maintained in the animal facility, and all experiments were performed in compliance with NIH animal-use guidelines and under an IACUC approved protocol. Melanoma cells were injected, 5×10^6 cells, subcutaneously. When the tumor size reached 100 mm^3, the INT2-31 was introduced by intraperitoneal injection at a dose of 15 mg/kg daily for 21 days. Tumor diameters were measured with calipers, and tumor volume in mm^3 was calculated using the formula [(width)^2×length]/2. At the end of experiment, tumor weight and volume were determined.

Data set [7] deals with Panc-1 pancreatic cancer cells. The experiment in a line: Cell viability (MTT), Panc-1. The format is cell-based. On the procedure:
as §1
(§3) Cell viability and detachment assays: After cells were treated with siRNA transfection, cell viability was measured by 3-(4,5-dimethylthiazol2-yl)-2,5-diphenyl tetrazolium bromide (MTT) assay (CellTiter 96® AQueous, Promega, Madison, Wis.). Briefly, 20 μl of the tetrazolium compound was added to each well. The cells were then incubated at 37° C. for 1 h. The plate was read at 490 nm with a plate reader to determine the viability. In detachment assays, detached and attached cells were harvested separately and counted in a hemocytometer. The percentage of detachment was calculated by dividing the number of detached cells by the total number of cells. Apoptosis assays: After treatment, attached and detached cells were collected, counted and prepared for terminal uridine deoxynucleotidyl transferase (TUNEL) assay by utilizing an APO-BRDU kit (BD Pharmingen, San Diego, Calif.) according to the manufacturer's instructions. Stained cells were analyzed with a fluorescence-activated cell sorting-Calibur flow cytometer (BD Biosciences). Calculation of the percentage of apoptotic cells in the sample was completed with CellQuest software (BD Biosciences). Apoptotic cells were also analyzed by Hoechst staining. Hoechst 33342 ([…]) was added to the fixed cells and the specimens were mounted on glass coverslips. The slides were viewed under the Zeiss microscope for apoptotic nuclei. The percent of apoptotic cells was calculated as the ratio of apoptotic cells to total number of cells.
In addition, the effect of INT2-31 on cell viability of esophageal, pancreatic and breast cancer cell lines was analyzed and the IC50 value for each cell line was determined, as shown in Table 1. […] Similar to melanoma results, INT2-31 inhibits viability more in cancer cells compared to normal cells. Sensitivity of the cells to INT2-31 varied and directly correlated to the FAK and IGF-1R expression level of the cells.

The subject of data set [8] is A375 melanoma cells. The experiment in a line: Cell viability (MTT), A375. The format is cell-based, human. On the procedure: as §1, §3
In addition, the effect of INT2-31 on cell viability of esophageal, pancreatic and breast cancer cell lines was analyzed and the IC50 value for each cell line was determined, as shown in Table 1. […] Similar to melanoma results, INT2-31 inhibits viability more in cancer cells compared to normal cells. […]

Chain of IGF-1R (P08069 31-1367): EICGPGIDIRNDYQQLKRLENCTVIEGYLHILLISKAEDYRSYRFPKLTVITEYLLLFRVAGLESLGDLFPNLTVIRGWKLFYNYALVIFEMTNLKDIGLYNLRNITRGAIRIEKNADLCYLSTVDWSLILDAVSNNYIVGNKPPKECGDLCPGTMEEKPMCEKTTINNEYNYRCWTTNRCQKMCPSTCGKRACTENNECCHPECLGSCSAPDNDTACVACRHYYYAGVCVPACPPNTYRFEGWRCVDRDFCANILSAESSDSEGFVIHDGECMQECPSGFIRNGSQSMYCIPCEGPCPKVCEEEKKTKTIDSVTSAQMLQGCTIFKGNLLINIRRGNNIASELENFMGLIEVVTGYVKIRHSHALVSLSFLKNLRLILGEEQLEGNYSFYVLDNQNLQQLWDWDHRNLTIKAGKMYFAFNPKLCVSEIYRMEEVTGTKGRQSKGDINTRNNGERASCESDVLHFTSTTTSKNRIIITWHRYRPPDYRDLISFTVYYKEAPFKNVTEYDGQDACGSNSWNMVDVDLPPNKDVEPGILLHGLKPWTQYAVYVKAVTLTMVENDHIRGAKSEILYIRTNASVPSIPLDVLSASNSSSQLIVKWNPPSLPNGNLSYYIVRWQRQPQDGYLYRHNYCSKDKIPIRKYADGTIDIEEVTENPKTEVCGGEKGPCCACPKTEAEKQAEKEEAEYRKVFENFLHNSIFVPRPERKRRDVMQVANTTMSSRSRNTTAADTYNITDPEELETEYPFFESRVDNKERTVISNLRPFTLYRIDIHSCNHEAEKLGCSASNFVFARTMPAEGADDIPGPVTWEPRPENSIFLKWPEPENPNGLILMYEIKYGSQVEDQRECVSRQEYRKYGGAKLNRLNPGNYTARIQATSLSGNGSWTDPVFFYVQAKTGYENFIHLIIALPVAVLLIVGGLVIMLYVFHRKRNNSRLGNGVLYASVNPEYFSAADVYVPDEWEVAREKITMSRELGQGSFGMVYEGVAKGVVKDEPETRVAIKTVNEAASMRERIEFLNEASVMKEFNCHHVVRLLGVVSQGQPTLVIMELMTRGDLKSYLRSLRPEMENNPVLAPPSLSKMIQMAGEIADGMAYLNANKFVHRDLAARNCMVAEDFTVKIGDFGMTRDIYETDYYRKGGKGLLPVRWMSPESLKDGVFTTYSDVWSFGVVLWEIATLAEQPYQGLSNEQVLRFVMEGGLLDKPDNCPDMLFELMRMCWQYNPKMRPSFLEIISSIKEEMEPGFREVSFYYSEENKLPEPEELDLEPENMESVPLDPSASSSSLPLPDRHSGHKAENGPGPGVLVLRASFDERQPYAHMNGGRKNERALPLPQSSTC

As usually defined, the IC50 is the concentration that gives 50% inhibition. With `CSc1ncnc2c1ccn2C1O[C@H](COP(=O)(O)O)[C@@H](O)[C@H]1O` (stereo partly drawn) [INT2-31, 4-(Methylthio)-7-(5-O-phosphono-D-ribofuranosyl)-{7H-Pyrrolo[2,3-d]pyrimidine}], in data set [1], the “induction of apoptosis, Hoescht positive cells” value is given as “greater than 50%”. In addition, the IC50 in data set [2] is 19.8 µM; in data set [3], 5.6 µM; in data set [7] (Homo sapiens, Panc-1, 72 hours, read-out: IC50 of INT2-31, cell viability) it was 6.7 µM; in data set [8] (Homo sapiens, A-375, A375, 72 hours, read-out: IC50 of INT2-31, cell viability), 2.7 µM. Also, in data set [4], the “growth, cell numbers” value is “potent time and dose dependent inhibition”. The “cell proliferation (CSFE)” value in data set [5] is given as “inhibited cell proliferation”. In data set [6], the “kinase activity of IGF-1R” value was “did not inhibit”. Further, the “cell viability (in words)” value in data set [7] (Panc-1, 72 hours) is “inhibits the cell viability”; in data set [8] (A375, MTT) it was “inhibited cell viability in a dose-dependent manner”. Also, the “effect of combination with 5-FU on cell viability” value in data set [7] (pancreatic cancer cells, 1 μM INT2-31) is reported as “synergistic effects”. Moreover, the “effect of combination with gemcitabine on cell viability” value in data set [7] (pancreatic cancer cells, data not shown) is “only additive”.
